Tests used:
Assay in all cases: normalised response (% of control), CellTiter-Glo; higher = more viable cells (100 = DMSO, 0 = benzethonium chloride kill control)
Details in all cases: incubation time: 72 h
BT-474 = system: BT-474
Method in brief: (§1)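 For each plate, 0.1 % DMSO was set to 100 and a positive kill control to 0. Breast cancer cell lines (20 µl suspension) were seeded into 384-well plates already holding compound at 5 concentrations in 10-fold steps over a 10,000-fold range chosen per compound, and incubated for 72 h. CellTox Green fluorescence at 485/520 nm was read before CellTiter-Glo luminescence, which followed 10 min at room temperature. Each value is the normalised signal at one concentration.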

BT-549 = system: BT-549
Method in brief: as §1

CAL-120 = system: CAL-120
Method in brief: as §1

CAL-148 = system: CAL-148
Method in brief: as §1

CAL-51 = system: CAL-51
Method in brief: as §1

CAL-85-1 = system: CAL-85-1
Method in brief: as §1

DU-4475 = system: DU-4475
Method in brief: as §1

HCC1143 = system: HCC1143
Method in brief: as §1

HCC1599 = system: HCC1599
Method in brief: as §1

HCC1937 = system: HCC1937
Method in brief: as §1

HDQ-P1 = system: HDQ-P1
Method in brief: as §1

Hs578T = system: Hs578T
Method in brief: as §1

MCF-10A = system: MCF-10A
Method in brief: as §1

MDA-MB-231 = system: MDA-MB-231
Method in brief: as §1

MDA-MB-436 = system: MDA-MB-436
Method in brief: as §1

MDA-MB-453 = system: MDA-MB-453
Method in brief: as §1

MDA-MB-468 = system: MDA-MB-468
Method in brief: as §1

MFM-223 = system: MFM-223
Method in brief: as §1

SK-BR-3 = system: SK-BR-3
Method in brief: as §1

| SMILES | normalised response (BT-474) | normalised response (BT-549) | normalised response (CAL-120) | normalised response (CAL-148) | normalised response (CAL-51) | normalised response (CAL-85-1) | normalised response (DU-4475) | normalised response (HCC1143) | normalised response (HCC1599) | normalised response (HCC1937) | normalised response (HDQ-P1) | normalised response (Hs578T) | normalised response (MCF-10A) | normalised response (MDA-MB-231) | normalised response (MDA-MB-436) | normalised response (MDA-MB-453) | normalised response (MDA-MB-468) | normalised response (MFM-223) | normalised response (SK-BR-3) |
| --- | --- | --- | --- | --- | --- | --- | --- | --- | --- | --- | --- | --- | --- | --- | --- | --- | --- | --- | --- |
| CNC(=O)c1ccc(N2C(=S)N(c3ccc(C#N)c(C(F)(F)F)c3)C(=O)C2(C)C)cc1F [Enzalutamide] (10 nM) | 103% | 91.4% | 95.3% | 107% | 124% | 93.5% | 101% | 103% | 95.8% | 91.3% | 100% | 101% | 106% | 94.5% | 99.4% | 99% | 98.7% | 98.6% | 98% |
| CCOC(=O)CCNc1cc(N2CCc3ccccc3CC2)nc(-c2ccccn2)n1 [GSK-J4] (10 nM) | 97.3% | 101% | 102% | 92.8% | 102% | 93.1% | 99% | 92.6% | 104% | 93.1% | 97.4% | 97% | 102% | 95.1% | 95.8% | 91.9% | 97.8% | 99.4% | 97.9% |
| CCOC(=O)CCNc1cc(N2CCc3ccccc3CC2)nc(-c2ccccn2)n1 [GSK-J4] (100 nM) | 95.7% | 93.8% | 110% | 101% | 97.8% | 100% | 95.3% | 97.6% | 95.5% | 95.2% | 93.1% | 105% | 97.3% | 92.8% | 92.6% | 84.8% | 95.5% | 103% | 68.8% |
| Cc1cc(Nc2cc(CN3CCOCC3)c3nc(C)c(Cc4ccc(Cl)cc4F)n3n2)n[nH]1 [Gandotinib] (1 nM) | 108% | 105% | 94.4% | 111% | 93.5% | 104% | 106% | 97.8% | 109% | 100% | 97.3% | 100% | 107% | 98.1% | 97.4% | 103% | 112% | 99.7% | 110% |
| COc1cc2ncnc(Nc3ccc(F)c(Cl)c3)c2cc1OCCCN1CCOCC1 [Gefitinib] (10 nM) | 100% | 98.6% | 96.2% | 105% | 103% | 96.6% | 100% | 98.1% | 89.5% | 98.3% | 97% | 103% | 95.6% | 98% | 103% | 108% | 95.9% | 108% | 107% |
| NC(=O)c1ccc(I)c([N+](=O)[O-])c1 [Iniparib] (10 nM) | 91.2% | 94.2% | 91.9% | 83.2% | 85.4% | 90.6% | 93.5% | 90% | 94.2% | 95.4% | 89.2% | 92.8% | 81.3% | 92.6% | 87.2% | 77.9% | 90.7% | 84.2% | 74.1% |
| CCc1c2c(nc3ccc(OC(=O)N4CCC(N5CCCCC5)CC4)cc13)-c1cc3c(c(=O)n1C2)COC(=O)[C@]3(O)CC [Irinotecan] (10 nM) | 100% | 90.8% | 94.2% | 93.7% | 114% | 100% | 106% | 99.7% | 97.5% | 94.8% | 98.4% | 97.7% | 105% | 97.7% | 92.7% | 107% | 105% | 98.7% | 109% |
| Oc1ccc2c(c1)CC[C@H](c1ccccc1)[C@@H]2c1ccc(OCCN2CCCC2)cc1 [Lasofoxifene] (1 nM) | 102% | 93.2% | 95.1% | 112% | 106% | 96.6% | 105% | 100% | 97.3% | 101% | 96.3% | 103% | 104% | 104% | 101% | 112% | 105% | 107% | 110% |
| COC(=O)c1ccc2c(c1)NC(=O)/C2=C(\Nc1ccc(N(C)C(=O)CN2CCN(C)CC2)cc1)c1ccccc1 [Nintedanib] (1 nM) | 98% | 97.6% | 104% | 110% | 121% | 99.1% | 101% | 97.1% | 103% | 97.7% | 102% | 95.9% | 103% | 98.7% | 101% | 120% | 110% | 99.1% | 101% |
| COC(=O)c1ccc2c(c1)NC(=O)/C2=C(\Nc1ccc(N(C)C(=O)CN2CCN(C)CC2)cc1)c1ccccc1 [Nintedanib] (10 nM) | 96.9% | 100% | 100% | 105% | 125% | 95% | 103% | 97% | 133% | 97.3% | 104% | 104% | 107% | 91.2% | 104% | 115% | 102% | 103% | 115% |
| O=C(Nc1cccnc1)N1CCC(Cc2cccc(Oc3ccc(C(F)(F)F)cn3)c2)CC1 [PF-3845] (10 nM) | 110% | 96.7% | 105% | 112% | 88.9% | 103% | 105% | 106% | 96.9% | 103% | 97.3% | 108% | 115% | 109% | 100% | 106% | 101% | 119% | 96.7% |
| CNC(=O)c1ccc(N2C(=S)N(c3ccc(C#N)c(C(F)(F)F)c3)C(=O)C23CCC3)cc1F [RD162] (1 nM) | 97% | 93.8% | 98% | 104% | 108% | 96.2% | 102% | 93.7% | 107% | 93.8% | 95.9% | 102% | 102% | 106% | 101% | 104% | 106% | 99.9% | 107% |
| CNC(=O)c1ccc(N2C(=S)N(c3ccc(C#N)c(C(F)(F)F)c3)C(=O)C23CCC3)cc1F [RD162] (10 nM) | 103% | 93.8% | 95.5% | 107% | 102% | 101% | 102% | 105% | 99.3% | 97% | 96.3% | 95.3% | 105% | 98.2% | 93.7% | 104% | 105% | 102% | 94.4% |
| CNC(=O)c1cc(Oc2ccc(NC(=O)Nc3ccc(Cl)c(C(F)(F)F)c3)c(F)c2)ccn1 [Regorafenib] (10 nM) | 111% | 106% | 94% | 109% | 108% | 100% | 105% | 100% | 108% | 96% | 102% | 101% | 113% | 95.2% | 104% | 117% | 97.9% | 101% | 110% |
| CO[C@H]1C[C@@H]2CC[C@@H](C)[C@@](O)(O2)C(=O)C(=O)N2CCCC[C@H]2C(=O)O[C@H]([C@H](C)C[C@@H]2CC[C@@H](OP(C)(C)=O)[C@H](OC)C2)CC(=O)[C@H](C)/C=C(\C)[C@@H](O)[C@@H](OC)C(=O)[C@H](C)C[C@H](C)/C=C/C=C/C=C/1C [Ridaforolimus] (0.01 nM) | 107% | 101% | 103% | 105% | 109% | 99.8% | 103% | 102% | 113% | 99.6% | 109% | 96.8% | 104% | 103% | 103% | 109% | 102% | 105% | 111% |
| c1ccc2c(CCNc3ccc(Nc4ccncc4)cc3)c[nH]c2c1 [Serdemetan] (10 nM) | 87.6% | 105% | 91.5% | 92% | 105% | 106% | 102% | 93.4% | 115% | 99.4% | 98.7% | 96.5% | 100% | 97.3% | 97.9% | 105% | 95.2% | 98.3% | 94.3% |
| S=P(N1CC1)(N1CC1)N1CC1 [Thio-TEPA] (5 nM) | 93.2% | 94.9% | 95.4% | 90.4% | 64.7% | 99.2% | 98.6% | 96.2% | 104% | 93.8% | 93.4% | 106% | 101% | 102% | 78.2% | 108% | 91.2% | 102% | 105% |
| S=P(N1CC1)(N1CC1)N1CC1 [Thio-TEPA] (50 nM) | 97% | 100% | 93% | 94.2% | 71.5% | 98.7% | 103% | 95.7% | 101% | 101% | 94.7% | 99.1% | 103% | 96.6% | 98.5% | 98% | 95.3% | 106% | 91.5% |
| CN(C)CCOc1ccc(/C(=C(/CCCl)c2ccccc2)c2ccccc2)cc1 [Toremifene] (10 nM) | 101% | 99% | 105% | 109% | 130% | 95.1% | 108% | 98.2% | 91.3% | 98.6% | 99.2% | 103% | 105% | 96.8% | 97.1% | 120% | 103% | 106% | 117% |
| CC(C)C[C@@H](C(=O)N[C@H](C(=O)OC1CCCC1)c1ccccc1)[C@H](O)C(=O)NO [Tosedostat] (10 nM) | 95.3% | 88.2% | 92.6% | 111% | 125% | 92.2% | 99.5% | 97.2% | 114% | 87.9% | 99.8% | 94.4% | 102% | 94.4% | 96.1% | 93.9% | 78.5% | 104% | 113% |
